In patent publication US7001905B2, “Substituted diarylamines as MEK inhibitors” (Warner-Lambert Company, priority 2000, dated 2006):

Target: T1, MEK (Homo sapiens, UniProt Q02750)
T1 construct: no tag is given for the 2D mutant
Experiment: in vitro MEK assay
Type: biochemical
Experimental: For evaluation of direct MEK activity, 10 μg GST-MEK, is incubated in the presence of absence of test compound with 5 μg of a glutathione S-transferase fusion protein containing p44MAP kinase with a lysine to alanine mutation at position 71 (GST-MAPK-KA). This mutation eliminates kinase activity of MAPK, so only kinase activity attributed to the added MEK remains. Incubations are 15 minutes at 30° C. in a final volume of 50 μL containing 50 mM Tris (pH 7.5), […], 2, μM EGTA, and 10 μM [γ-^32P]ATP. The reaction is stopped by addition of Laemmli SDS sample buffer. Phosphorylated GST-MAPK-KA is resolved by electrophoresis on a 10% polyacrylamide gel. Radioactivity incorporated into GST-MAPK-KA is determined by autoradiography, and subsequent scintillation counting of excised bands.
Alternatively, an artificially activated MEK containing serine to glutamate mutations at positions 218 and 222 (GST-MEK-2E) is used. When these two sites are phosphorylated, MEK activity is increased. Phosphorylation of these sites can be mimicked by mutation of the serine residues to glutamate. For this assay, 5 μg GST-MEK-2E is incubated with 5 μg GST-MAPK-KA for 15 minutes at 30° C. in the same reaction buffer as described above. Reactions are terminated and analyzed as above.

T1 sequence (Q02750 whole entry S218D/S222D, form open): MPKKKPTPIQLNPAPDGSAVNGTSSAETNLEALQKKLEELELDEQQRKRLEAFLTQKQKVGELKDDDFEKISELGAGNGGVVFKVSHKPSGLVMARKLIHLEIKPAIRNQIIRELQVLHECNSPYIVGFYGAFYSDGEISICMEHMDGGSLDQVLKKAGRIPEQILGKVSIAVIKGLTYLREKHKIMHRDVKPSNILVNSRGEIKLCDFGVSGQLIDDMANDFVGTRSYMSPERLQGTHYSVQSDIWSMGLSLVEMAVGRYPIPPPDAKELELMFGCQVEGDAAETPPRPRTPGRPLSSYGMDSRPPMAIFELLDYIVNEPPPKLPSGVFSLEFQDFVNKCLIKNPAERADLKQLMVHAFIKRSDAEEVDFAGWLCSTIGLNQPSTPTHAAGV

SMILES	in vitro MEK assay: % inhibition @ 1 μM [%]	IC50 [nM]
CSc1nc(NC(=O)c2cc3c(c(F)c2F)N(c2ccc(I)cc2C)COC3=O)n[nH]1 [Example 35, 7,8-Difluoro-1-(4-iodo-2-methyl-phenyl)-4-oxo-1,4-dihydro-2H-3,1-benzoxazine-6-carboxylic acid (5-methylsulfanyl-1H-1,2,4-triazol-3-yl)-amide]	76	–
COc1ccc2c(CCNC(=O)c3cc4c(c(F)c3F)N(c3ccc(I)cc3C)COC4=O)c[nH]c2c1 [Example 48, 7,8-Difluoro-1-(4-iodo-2-methyl-phenyl)-4-oxo-1,4-dihydro-2H-3,1-benzoxazine-6-carboxylic acid [2-(6-methoxy-1H-indol-3-yl)-ethyl]-amide]	12	–
Cc1cc(I)ccc1Nc1c(C(=O)O)cc(C(=O)Nc2ccc(Cl)nc2)c(F)c1F [Example 85, N-(6-Chloro-pyridin-3-yl)-4,5-difluoro-6-(4-iodo-2-methyl-phenylamino)-isophthalamic acid]	90	970
Cc1cc(I)ccc1N1COC(=O)c2cc(C(=O)Nc3cc[nH]n3)c(F)c(F)c21 [Example 36, 7,8-Difluoro-1-(4-iodo-2-methyl-phenyl)-4-oxo-1,4-dihydro-2H-3,1-benzoxazine-6-carboxylic acid (1H-pyrazol-3-yl)-amide]	60	–
CCc1nnc(NC(=O)c2cc3c(c(F)c2F)N(c2ccc(I)cc2C)COC3=O)s1 [Example 26, 7,8-Difluoro-1-(4-iodo-2-methyl-phenyl)-4-oxo-1,4-dihydro-2H-3,1-benzoxazine-6-carboxylic acid (5-ethyl-1,3,4-thiadiazol-2-yl)-amide]	20	–
Cc1cc(I)ccc1Nc1c(C(=O)O)cc(C(=O)N(C)CCc2c[nH]c3ccccc23)c(F)c1F [Example 95, 4,5-Difluoro-N-[2-(1H-indol-3-yl)-ethyl]-6-(4-iodo-2-methyl-phenylamino)-N-methyl-isophthalamic acid]	77	–
Cc1cc(I)ccc1Nc1c(C(=O)O)cc(C(=O)NCCN2CCCCC2)c(F)c1F [Example 102]	25	–
Cc1cc(I)ccc1N1COC(=O)c2cc(C(=O)N3CCN(C)CC3)c(F)c(F)c21 [Example 17]	78	–
Cc1cc(I)ccc1Nc1c(C(=O)O)cc(C(=O)NCCOCCO)c(F)c1F [Example 65, 4,5-Difluoro-N-[2-(2-hydroxy-ethoxy)-ethyl]-6-(4-iodo-2-methyl-phenylamino)-isophthalamic acid]	63	1380
CCn1nccc1NC(=O)c1cc(C(=O)O)c(Nc2ccc(I)cc2C)c(F)c1F [Example 84, N-(2-Ethyl-2H-pyrazol-3-yl)-4,5-difluoro-6-(4-iodo-2-methyl-phenylamino)-isophthalamic acid]	79	960
Cc1cc(I)ccc1N1COC(=O)c2cc(C(=O)NC3CCCC[C@@H]3O)c(F)c(F)c21 (stereo in doubt) [Example 60, 7,8-difluoro-1-(4-iodo-2-methyl-phenyl)-4-oxo-1,4-dihydro-2H-3,1-benzoxazine-6-carboxylic acid ((S)-2-hydroxy-cyclohexyl)-amide]	30	–
Cc1cc(I)ccc1Nc1c(C(=O)O)cc(C(=O)NCCC2CCCN2C)c(F)c1F (centres unmarked) [Example 66, 4,5-Difluoro-6-(4-iodo-2-methyl-phenylamino)-N-[2-(1-methyl-pyrrolidin-2-yl)-ethyl]-isophthalamic acid]	14	–
Cc1cc(I)ccc1Nc1c(C(=O)O)cc(C(=O)Nc2ccc3cn[nH]c3c2)c(F)c1F [Example 86, 4,5-Difluoro-N-(1H-indazol-6-yl)-6-(4-iodo-2-methyl-phenylamino)-isophthalamic acid]	77	1100
Cc1cc(I)ccc1N1COC(=O)c2cc(C(=O)Nc3ccccc3CCO)c(F)c(F)c21 [Example 30, 7,8-Difluoro-1-(4-iodo-2-methyl-phenyl)-4-oxo-1,4-dihydro-2H-3,1-benzoxazine-6-carboxylic acid [2-(2-hydroxy-ethyl)-phenyl]-amide]	55	–
CCCCN(CCS)C(=O)c1cc(C(=O)O)c(Nc2ccc(I)cc2C)c(F)c1F [Example 68, N-Butyl-4,5-difluoro-6-(4-iodo-2-methyl-phenylamino)-N-(2-mercapto-ethyl)-isophthalamic acid]	24	–
Cc1cc(I)ccc1Nc1c(C(=O)O)cc(C(=O)NCC2CCCO2)c(F)c1F (centres unmarked) [Example 97, 4,5-Difluoro-6-(4-iodo-2-methyl-phenylamino)-N-(tetrahydro-furan-2-ylmethyl)-isophthalamic acid]	81	–
Cc1cc(I)ccc1Nc1c(C(=O)O)cc(C(=O)Nc2ccc(S(N)(=O)=O)cc2)c(F)c1F [Example 96, 4,5-Difluoro-6-(4-iodo-2-methyl-phenylamino)-N-(4-sulfamoyl-phenyl)-isophthalamic acid]	85	–
COC[C@@H]1CCCN1C(=O)c1cc2c(c(F)c1F)N(c1ccc(I)cc1C)COC2=O [Example 9, 7,8-Difluoro-1-(4-iodo-2-methyl-phenyl)-6-((S)-2-methoxymethyl-pyrrolidine-1-carbonyl)-1,2-dihydro-3,1-benzoxazin-4-one]	93	–
Cc1cc(I)ccc1N1COC(=O)c2cc(C(=O)Nc3ccc(N(C)C)cc3)c(F)c(F)c21 [Example 53, 7,8-Difluoro-1-(4-iodo-2-methyl-phenyl)-4-oxo-1,4-dihydro-2H-3,1-benzoxazine-6-carboxylic acid (4-dimethylamino-phenyl)amide]	61	–
Cc1cc(I)ccc1N1COC(=O)c2cc(C(=O)Nc3nc4ccccc4s3)c(F)c(F)c21 [Example 29, 7,8-Difluoro-1-(4-iodo-2-methyl-phenyl)-4-oxo-1,4-dihydro-2H-3,1-benzoxazine-6-carboxylic acid benzothiazol-2-ylamide]	21	–
Cc1cc(I)ccc1N1COC(=O)c2cc(C(=O)NCCc3c[nH]cn3)c(F)c(F)c21 [Example 50, 7,8-Difluoro-1-(4-iodo-2-methyl-phenyl)4-oxo-1,4-dihydro-2H-3,1-benzoxazine-6-carboxylic acid [2-(1H-imidazol4-yl)-ethyl]-amide]	44	–
Cc1cc(I)ccc1N1COC(=O)c2cc(C(=O)NCCN3CCCC3)c(F)c(F)c21 [Example 11, 7,8-Difluoro-1-(4-iodo-2-methyl-phenyl)-4-oxo-1,4-dihydro-2H-3,1-benzoxazine-6-carboxylic acid (2-pyrrolidin-1-yl-ethyl)-amide]	33	–
Cc1cc(I)ccc1Nc1c(C(=O)O)cc(C(=O)NCCc2ccccn2)c(F)c1F [Example 67, 4,5-Difluoro-6-(4-iodo-2-methyl-phenylamino)-N-(2-pyridin-2-yl-ethyl)-isophthalamic acid]	81	3300
Cc1cc(I)ccc1N1COC(=O)c2cc(C(=O)N(CCO)CCO)c(F)c(F)c21 [Example 49, 7,8-Difluoro-1-(4-iodo-2-methyl-phenyl)-4-oxo-1,4-dihydro-2H-3,1-benzoxazine-6-carboxylic acid bis-(2-hydroxy-ethyl)-amide]	50	–
Cc1cc(I)ccc1N1COC(=O)c2cc(C(=O)N3CCCC(O)C3)c(F)c(F)c21 (centres unmarked) [Example 38, 7,8-Difluoro-6-(3-hydroxy-piperidine-1-carbonyl)-1-(4-iodo-2-methyl-phenyl)-1,2-dihydro-3,1-benzoxazin-4-one]	48	–
Cc1cc(I)ccc1Nc1c(C(=O)O)cc(C(=O)N2CCOCC2)c(F)c1F [Example 89, 3,4-Difluoro-2-(4-iodo-2-methyl-1-phenylamino)-5-(1-morpholin-4-yl-methanoyl)-benzoic acid]	89	–
Cc1cc(I)ccc1N1COC(=O)c2cc(C(=O)N3CCCC(CO)C3)c(F)c(F)c21 (centres unmarked) [Example 39, 7,8-Difluoro-6-(3-hydroxymethyl-piperidine-1-carbonyl)-1-(4-iodo-2-methyl-phenyl)-1,2-dihydro-3,1-benzoxazin-4-one]	71	–
Cc1cc(I)ccc1N1COC(=O)c2cc(C(=O)N3CCOCC3)c(F)c(F)c21 [Example 51, 7,8-Difluoro-1-(4-iodo-2-methyl-phenyl)-6-(morpholine-4-carbonyl)-1,2-dihydro-3,1-benzoxazin-4-one]	72	–
Cc1cc(I)ccc1N1COC(=O)c2cc(C(=O)Nc3nccs3)c(F)c(F)c21 [Example 31, 7,8-Difluoro-1-(4-iodo-2-methyl-phenul)-4-oxo-1,4-dihydro-2H-3,1-benzoxazine-6-carboxylic acid thiazol-2-ylamide]	32	–
Cc1cc(I)ccc1Nc1c(C(=O)O)cc(C(=O)N2CCN(C)CC2)c(F)c1F [Example 64, 3,4-Difluoro-2-(4-iodo-2-methyl-phenylamino)-5-[1-(4-methyl-piperazin-1-yl)-methanoyl]-benzoic acid]	57	–
